Results: BindingDB's records for doi:10.1021/acs.jmedchem.3c00203 (University of Oxford, 2023)

Experiments:
[1] = target: T1, Isocitrate dehydrogenase [NADP] cytoplasmic (Homo sapiens, UniProt O75874); test: Inhibition of recombinant wildtype IDH1 (unknown origin) expressed in Escherichia coli BL21(DE3) pLysS cells using DL-isocitrste as substrate assessed as DL-isocitrate conversion to 2OG incubated for 60 mins in presence of NADPH by spectrophotometric analysis
Target sequence in this assay (O75874 whole entry): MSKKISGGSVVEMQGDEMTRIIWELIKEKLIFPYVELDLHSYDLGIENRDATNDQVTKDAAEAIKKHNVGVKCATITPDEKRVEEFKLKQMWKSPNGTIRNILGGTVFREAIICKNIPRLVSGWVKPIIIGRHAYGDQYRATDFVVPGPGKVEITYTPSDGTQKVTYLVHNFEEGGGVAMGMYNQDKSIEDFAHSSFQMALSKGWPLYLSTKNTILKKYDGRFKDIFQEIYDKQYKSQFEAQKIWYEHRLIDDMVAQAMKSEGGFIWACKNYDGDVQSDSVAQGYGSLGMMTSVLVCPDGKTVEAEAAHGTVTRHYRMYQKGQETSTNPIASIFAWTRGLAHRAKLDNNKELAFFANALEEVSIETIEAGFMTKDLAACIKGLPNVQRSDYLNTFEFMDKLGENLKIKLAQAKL

[2] = target: T1, Isocitrate dehydrogenase [NADP] cytoplasmic; test: Inhibition of recombinant IDH1 R132H mutant (unknown origin) expressed in Escherichia coli BL21(DE3) pLysS cells using 2OG as substrate assessed as 2OG conversion to 2HG incubated for 60 mins in presence of NADPH by spectrophotometric analysis
Target sequence in this assay (O75874 2-414 R132H limits assumed): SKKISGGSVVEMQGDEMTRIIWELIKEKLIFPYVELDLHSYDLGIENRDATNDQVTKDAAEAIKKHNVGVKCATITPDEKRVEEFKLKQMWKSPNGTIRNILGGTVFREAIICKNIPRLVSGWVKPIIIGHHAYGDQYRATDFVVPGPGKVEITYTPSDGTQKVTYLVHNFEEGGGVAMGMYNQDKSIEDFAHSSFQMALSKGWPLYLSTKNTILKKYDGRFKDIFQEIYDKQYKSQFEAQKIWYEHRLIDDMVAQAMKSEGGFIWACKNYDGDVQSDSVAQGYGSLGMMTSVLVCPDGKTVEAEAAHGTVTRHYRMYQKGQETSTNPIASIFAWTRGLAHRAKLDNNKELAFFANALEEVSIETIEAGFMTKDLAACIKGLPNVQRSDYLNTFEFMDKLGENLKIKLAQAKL

[3] = target: T1, Isocitrate dehydrogenase [NADP] cytoplasmic; test: Binding affinity to recombinant wildtype IDH1 (unknown origin) expressed in Escherichia coli BL21(DE3) pLysS cells assessed as dissociation constant by ITC assay
Target sequence in this assay (O75874 whole entry): as the sequence (O75874 whole entry) above

[4] = target: T1, Isocitrate dehydrogenase [NADP] cytoplasmic; test: Binding affinity to recombinant IDH1 R132H mutant (unknown origin) expressed in Escherichia coli BL21(DE3) pLysS cells assessed as dissociation constant by ITC assay
Target sequence in this assay (O75874 2-414 R132H limits assumed): as the sequence (O75874 2-414 R132H limits assumed) above

[5] = target: T1, Isocitrate dehydrogenase [NADP] cytoplasmic; test: Binding affinity to recombinant wildtype IDH1 (unknown origin) expressed in Escherichia coli BL21(DE3) pLysS cells assessed as dissociation constant by NMR analysis
Target sequence in this assay (O75874 whole entry): as the sequence (O75874 whole entry) above

[6] = target: T1, Isocitrate dehydrogenase [NADP] cytoplasmic; test: Binding affinity to recombinant IDH1 R132H mutant (unknown origin) expressed in Escherichia coli BL21(DE3) pLysS cells assessed as dissociation constant by NMR analysis
Target sequence in this assay (O75874 2-414 R132H limits assumed): as the sequence (O75874 2-414 R132H limits assumed) above

[7] = target: T1, Isocitrate dehydrogenase [NADP] cytoplasmic; test: Binding affinity to human recombinant IDH1 expressed in Escherichia coli BL21(DE3) pLysS cells assessed as dissociation constant by non-denaturing mass spectroscopic analysis
Target sequence in this assay (O75874 whole entry): as the sequence (O75874 whole entry) above

[8] = target: T1, Isocitrate dehydrogenase [NADP] cytoplasmic; test: Binding affinity to human recombinant IDH1 R132H mutant expressed in Escherichia coli BL21(DE3) pLysS cells assessed as dissociation constant by non-denaturing mass spectroscopic analysis
Target sequence in this assay (O75874 2-414 R132H limits assumed): as the sequence (O75874 2-414 R132H limits assumed) above

Molecule `CC(=O)N1CCN(Cc2ccc([C@H](C)Nc3nccc(N4C(=O)OC[C@@H]4C(C)C)n3)cc2)CC1` [US8957068, 556] has an IC50 [1] of 341 nM, an IC50 [2] of 8.2 nM and a Kd [3] of over 400000 nM. For the same molecule, the Kd [4] was over 400000 nM, the Kd [5] was 1700 nM and the Kd [6] was 1100 nM. For the same molecule, the Kd [7] was 140000 nM and the Kd [8] was 142000 nM.
